Where two headings read alike, the source gives them in different places.
Assays:
Assay type in all cases: cell-based
[1] = system: PDC activity in K562 cells; experiment: Cellular PDC activity assay, K562; conditions: 20 μM VER-246608 or […] Nov3r
Protocol: Cellular PDC activity was determined using a commercial assay kit (Abcam) as per the manufacturer's instructions. Briefly, PC-3 and K562 cell suspensions at a density of 1×10^6 and 1.5×10^6, respectively, were transferred to 96 well plates (250 μL per well). Cells were pre-treated with compound or DMSO for 1 h in a CO2incubator at 37°C followed by cell lysis in 250 μL of a 9:1 dilution of assay kit detergent (containing 20 mM NaF and 40 μM of the PDK inhibitor VER-246550) for 10 min on ice. The cellular debris was then pelleted at 1000g for 10 min. A 200 μL aliquot of each lysate was then transferred to the immunocapture microplate. PDC reaction rates were determined from the slope of the reaction curves and expressed as a percentage of the vehicle (DMSO) control values. […]
transformed and additional cancer cell lines. A, The indicated cell lines were seeded into […]
relevant media containing either 2 g/L D-glucose or D-galactose for 96 h. Cell mass was determined using the sulforhodamine B assay. Results are expressed as the percentage change vs DMSO control values for cells incubated in D-glucose containing media. […]
analysis of pyruvate dehydrogenase (PDH) activity in cell lysates using a commercially available ELISA-based assay kit (Abcam). Results are expressed as a percentage of the PDH reaction rate in DMSO treated cells. […]

PC-3 cells [2] = experiment: Oxygen consumption (oxytherm oxygen electrode)
Protocol: Oxygen consumption was measured using an ‘oxytherm’ oxygen electrode system (Hansatech). PC-3 cells were trypsinized and re-suspended to a density of 1.7×10^6cells/mL in RPMI-1640 media containing 10% FCS. Compounds or DMSO were then added to 1.5 mL aliquots of this suspension to yield the required final concentration followed by a 1 h incubation period in a CO2incubator at 37°C. The compound/vehicle treated cells were then transferred to the oxygen electrode chamber (pre-equilibrated to 37°C). Oxygen consumption was measured over a 30 minute period and the rate of oxygen consumption determined by plotting oxygen concentration against time and obtaining the slope of the line using the linear fit function within excel.

PC-3 cells [3] = experiment: Sulforhodamine B cell mass assay, PC-3 cells
Protocol: Compound cytotoxicity was determined using the Sulforhodamine B assay for cells cultured as a monolayer as described previously (45). For spheroid growth experiments, PC-3 cells were seeded (500 cells/well) into 96 well round bottom plates (Corning Costar 7007) in RPMI-1640 media containing 2.5% (w/v) Matrigel (BD Biosciences). […] Spheroid volumes were determined by obtaining diameter measurements from images taken on a Zeiss Axiovert 200M inverted microscope using the axiovision software.

[4] = system: p(Ser^293)E1α levels in PC-3 cells; experiment: Phospho(Ser293) E1α MSD ELISA in PC-3 cells; conditions: for Degree of suppression of p(Ser^293)E1α levels (plateau), reduction compared to DMSO control: MSD ELISA; for IC50: Homo sapiens, PD marker (ELISA)
Protocol: Phospho(Ser^293) E1α MSD ELISA assay: All reagents were purchased from Meso Scale Discovery (Maryland, USA) unless otherwise stated. Following compound treatment, cells were treated with lysis buffer (TBS pH 7.4, 1% Tween-20, 1 mM EGTA, 1 mM EDTA, 1 mM NaF, protease and phosphatase inhibitor cocktails (Roche)) on ice and the lysates added to standard bind 96 well MSD plates which were pre-loaded with custom phospho(Ser^293)E1α ‘capture’ antibody (2 μg/ml in TBST containing 3% (w/v) blocker A) (Genescript) and blocked with 3% (w/v) blocker A, followed by a 1 h incubation at RT. The wells were then washed 3X with TBST (0.05% tween 20) followed by the addition of 2 μg/ml E1α ‘detection’ antibody (2 μg/ml) (Abcam) and a further 1 h incubation at RT. The wells were again washed 3X with TBST followed by the addition of 1 μg/ml Goat anti-mouse Sulfotag antibody, and a further TBST wash prior to the addition of 2X read buffer T. The chemiluminescent signal was then measured on a MSD sector imager 2400.

PC-3 cells [5] = experiment: Metabolite analysis (L-lactate, D-glucose, pyruvate, L-alanine) in PC-3 cells; conditions: for Reduction in media L-lactate levels: 1 h; for Intracellular pyruvate levels: 24 h
Protocol: Pyruvate, L-lactate, D-glucose and L-alanine levels were determined using commercially available assay kits (Abcam) as per the manufacturer's instructions.

[6] = system: PDC activity in PC-3 cells; experiment: Cellular PDC activity assay, PC-3; conditions: magnitude greater for VER-246608
Protocol: Cellular PDC activity was determined using a commercial assay kit (Abcam) as per the manufacturer's instructions. Briefly, PC-3 and K562 cell suspensions at a density of 1×10^6 and 1.5×10^6, respectively, were transferred to 96 well plates (250 μL per well). Cells were pre-treated with compound or DMSO for 1 h in a CO2incubator at 37°C followed by cell lysis in 250 μL of a 9:1 dilution of assay kit detergent (containing 20 mM NaF and 40 μM of the PDK inhibitor VER-246550) for 10 min on ice. The cellular debris was then pelleted at 1000g for 10 min. A 200 μL aliquot of each lysate was then transferred to the immunocapture microplate. PDC reaction rates were determined from the slope of the reaction curves and expressed as a percentage of the vehicle (DMSO) control values.

C[C@@H]1CN(C(=O)[C@](C)(O)C(F)(F)F)[C@@H](C)CN1C(=O)c1ccc(C#N)cc1 [Nov3r, reference compound]
Increase in PDC activity [1]: an increase in PDC activity | Effect on oxygen consumption rate (PC-3 cells [2]; concentrations ≥ 1μM (3 μM in Fig. 3B)): no discernible effect | Cytotoxicity/cytostasis-induction (PC-3 cells [3]; any of the culture conditions, up to a top concentration of 80 μM): no evidence of cytotoxicity/cytostasis-induction | Degree of suppression of p(Ser^293)E1α levels (plateau), reduction compared to DMSO control ([4]; PC-3 cells): approximately 60% | Change in media L-lactate levels (PC-3 cells [5]; PC-3, all concentrations tested, 0.25 g/L D-glucose, 2% dialyzed FCS): no change | Increase in PDC activity [6]: an increase in PDC activity

Cc1cnc(Cl)nc1-c1ccc(N(Cc2ccc(CNC(=O)C(F)F)cc2)C(=O)c2ccc(O)cc2O)cc1 [VER-246608]
Increase in PDC activity [1]: an increase in PDC activity | Increase in the rate of oxygen consumption (PC-3 cells [2]; 20 μM, 1 h pre-treatment): 66% | Effect on growth in serum-free media or 0.1% serum (PC-3 cells [3]; PC-3, 20 μM, 120 h, 0% or 0.1% FCS): complete suppression of growth | Reduction in cell mass vs DMSO control (PC-3 cells [3]; PC-3, 20 μM, 120 h, D-glucose depletion with 15 mg/L L-glutamine): 50% | Reduction in growth (PC-3 cells [3]; PC-3, 20 μM, 120 h, serum depleted conditions (0.5% FCS)): 70% | IC50 ([4]; PC-3, read-out: p(Ser^293)E1α (10% FCS), IC50, 10% FCS): 1.45 µM | IC50 ([4]; PC-3 cells, 0% FCS, read-out: p(Ser^293)E1α (0% FCS), IC50): 0.266 µM | Reduction in p(Ser^293)E1α levels ([4]; PC-3, 10 and 20 μM, 24 h, D-glucose/L-glutamine-depleted media): > 70% | Degree of suppression of p(Ser^293)E1α levels (plateau), reduction compared to DMSO control ([4]; PC-3 cells): complete suppression | Reduction in media L-lactate levels (PC-3 cells [5]; PC-3, 9 μM, 0.25 g/L D-glucose, 2% dialyzed FCS): 21% | Intracellular pyruvate levels (PC-3 cells [5]; PC-3, 20 μM, D-glucose/L-glutamine and serum depleted conditions): marked reduction | Intracellular pyruvate levels (PC-3 cells [5]; PC-3, 20 μM, standard culture conditions): no change | Extracellular L-alanine levels (PC-3 cells [5]; PC-3, 20 μM, standard and low serum culture conditions): further substantial decrease | Reduction in media L-lactate levels (PC-3 cells [5]; PC-3, 27 μM, 0.25 g/L D-glucose, 2% dialyzed FCS): 42% | Extracellular L-lactate levels (PC-3 cells [5]; PC-3, 24 h, 10 and 20 μM, D-glucose/L-glutamine-depleted media): further reduction | L-lactate production vs DMSO (PC-3 cells [5]; PC-3, 24 h, normal or low serum media): not altered | Effect on D-glucose consumption (PC-3 cells [5]; PC-3, same concentrations that reduced L-lactate production (9 and 27 μM)): decreased D-glucose consumption | Increase in PDC activity [6]: an increase in PDC activity
